Test results reported in PMC5577655 (mSphere, 2017).
Like-named read-outs stand apart in the source and are kept apart here.

What was measured:
[1] = molecular target: T1, lysyl-tRNA synthetase 1 (LdLysRS-1) (Leishmania donovani, UniProt A0A3Q8IA00); assay: malachite green aminoacylation assay with recombinant enzyme; thermal shift of ~[…]°C; assay type: biochemical
T1 construct: gene LdCL_150007600; full-length LdLysRS-1 (586 aa), N-terminal His6 tag

[2] = molecular target: T1, lysyl-tRNA synthetase 1 (LdLysRS-1); assay: as above; assay type: biochemical; remark: listed apart in the source

T1 sequence (A0A3Q8IA00 entry or part of it): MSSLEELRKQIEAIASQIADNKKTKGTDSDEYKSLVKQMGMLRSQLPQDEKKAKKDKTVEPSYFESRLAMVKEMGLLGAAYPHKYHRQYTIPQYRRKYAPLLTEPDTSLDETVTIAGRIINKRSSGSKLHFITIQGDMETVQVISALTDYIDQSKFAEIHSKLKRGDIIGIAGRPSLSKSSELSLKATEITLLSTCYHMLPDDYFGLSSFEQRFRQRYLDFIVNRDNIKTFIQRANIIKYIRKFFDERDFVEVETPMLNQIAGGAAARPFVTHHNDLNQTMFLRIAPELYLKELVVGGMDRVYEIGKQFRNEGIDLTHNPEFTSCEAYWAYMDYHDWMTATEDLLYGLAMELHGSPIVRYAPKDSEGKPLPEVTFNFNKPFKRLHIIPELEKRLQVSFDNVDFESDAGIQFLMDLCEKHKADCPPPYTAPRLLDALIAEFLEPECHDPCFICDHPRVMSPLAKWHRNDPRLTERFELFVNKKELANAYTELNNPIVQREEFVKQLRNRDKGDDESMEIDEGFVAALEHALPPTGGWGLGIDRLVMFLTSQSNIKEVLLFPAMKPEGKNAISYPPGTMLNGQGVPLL

Row | IC50 [1] [µM] | IC50 [2] [µM] | Structure (SMILES)
1 | ~4.07 | – | C[C@H]1CCC[C@H](C[C@H]2Cc3cc(O)cc(O)c3C(=O)O2)O1 [cladosporin]
2 | – | ~25.5 | C[C@@H]1CCC[C@H](C[C@@H]2Cc3cc(O)cc(O)c3C(=O)O2)O1 [3-epi-isocladosporin]
